“Also recorded” adds a separate entry of the source. No end group written: not given here.
Columns and labels:
[1] = test system: Primary rat dopaminergic neurons; experiment: Mitochondrial superoxide production in primary dopaminergic neurons exposed to MPP+; format: cell-based; conditions: P110 1 μM, MPP+ 1 μM, 2 hrs, FIG. 10A
Method: (§1) Primary rat dopaminergic neurons (cultured for 6 days) were treated without or with P110 (1 μM) followed by treatment with or without MPP+(1 μM). Two hrs following MPP+ treatment, the cells were stained with MITOSOX™ red (to measure mitochondrial superoxide production) and anti-TH antibody (a marker of dopaminergic neurons). Fifteen hrs after MPP+ treatment, cells were stained with anti-TH antibody and anti-Tom20 antibody (a marker of mitochondria).

[2] = test system: Primary rat dopaminergic neurons; experiment: Mitochondrial fragmentation in primary dopaminergic neurons exposed to MPP+; format: cell-based; conditions: P110 1 μM, MPP+ 1 μM, 15 hrs, FIG. 10B
Method: as §1

OPA1 = molecular target: T1, OPA1 (Homo sapiens, UniProt O60313); experiment: In vitro GTPase assay, recombinant OPA1; format: biochemical; conditions: recombinant OPA1 25 ng, FIG. 2B
T1 sequence (O60313 88-960): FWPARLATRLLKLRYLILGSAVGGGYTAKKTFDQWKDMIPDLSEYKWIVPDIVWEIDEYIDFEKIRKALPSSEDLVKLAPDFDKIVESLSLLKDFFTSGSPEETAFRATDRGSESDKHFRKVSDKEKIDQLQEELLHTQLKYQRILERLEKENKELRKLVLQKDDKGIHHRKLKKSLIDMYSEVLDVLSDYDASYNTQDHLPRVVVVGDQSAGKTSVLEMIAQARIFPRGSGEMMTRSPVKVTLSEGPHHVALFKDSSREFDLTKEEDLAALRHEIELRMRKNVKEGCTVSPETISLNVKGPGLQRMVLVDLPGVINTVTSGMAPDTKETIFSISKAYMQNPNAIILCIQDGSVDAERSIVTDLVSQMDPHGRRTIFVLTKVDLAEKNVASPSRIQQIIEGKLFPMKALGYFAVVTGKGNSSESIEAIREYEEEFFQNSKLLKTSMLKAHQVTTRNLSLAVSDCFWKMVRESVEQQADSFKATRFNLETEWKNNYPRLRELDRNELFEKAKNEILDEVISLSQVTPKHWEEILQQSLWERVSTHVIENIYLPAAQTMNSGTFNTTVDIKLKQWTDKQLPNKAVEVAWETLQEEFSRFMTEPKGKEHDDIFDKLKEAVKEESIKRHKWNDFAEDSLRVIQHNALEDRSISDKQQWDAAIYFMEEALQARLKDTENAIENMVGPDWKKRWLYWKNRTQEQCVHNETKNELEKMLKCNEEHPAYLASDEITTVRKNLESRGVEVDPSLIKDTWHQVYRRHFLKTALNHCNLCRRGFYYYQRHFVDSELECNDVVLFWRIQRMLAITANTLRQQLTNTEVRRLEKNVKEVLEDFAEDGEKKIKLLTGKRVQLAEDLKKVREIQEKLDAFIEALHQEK
Method: First, mitochondrial fission inhibitor constructs were tested to determine what, if any, effects each peptide had on enzyme (GTPase) activity. Recombinant protein Drp1, Mfn1, OPA1 or dynamin-1 (25 ng) was incubated with the indicated modulator peptides for 30 min. GTPase activity was assayed in vitro using a GTPase assay kit (Innova Biosciences, Littleton, USA, or Novus Biologicals, Littleton, Colo.) according to manufacturer's instructions.

Drp1/Fis1 interaction = Drp1/Fis1 interaction (Homo sapiens, UniProt O00429); experiment: Drp1-Fis1 interaction in cultured SH-SY5Y neuronal cells (crosslink, immunoprecipitation); format: cell-based; design: endogenous in cells; host or cells: SH-SY5Y; conditions: peptides 1 μM, FIG. 2E
Sequence of Drp1/Fis1 interaction (O00429 whole entry): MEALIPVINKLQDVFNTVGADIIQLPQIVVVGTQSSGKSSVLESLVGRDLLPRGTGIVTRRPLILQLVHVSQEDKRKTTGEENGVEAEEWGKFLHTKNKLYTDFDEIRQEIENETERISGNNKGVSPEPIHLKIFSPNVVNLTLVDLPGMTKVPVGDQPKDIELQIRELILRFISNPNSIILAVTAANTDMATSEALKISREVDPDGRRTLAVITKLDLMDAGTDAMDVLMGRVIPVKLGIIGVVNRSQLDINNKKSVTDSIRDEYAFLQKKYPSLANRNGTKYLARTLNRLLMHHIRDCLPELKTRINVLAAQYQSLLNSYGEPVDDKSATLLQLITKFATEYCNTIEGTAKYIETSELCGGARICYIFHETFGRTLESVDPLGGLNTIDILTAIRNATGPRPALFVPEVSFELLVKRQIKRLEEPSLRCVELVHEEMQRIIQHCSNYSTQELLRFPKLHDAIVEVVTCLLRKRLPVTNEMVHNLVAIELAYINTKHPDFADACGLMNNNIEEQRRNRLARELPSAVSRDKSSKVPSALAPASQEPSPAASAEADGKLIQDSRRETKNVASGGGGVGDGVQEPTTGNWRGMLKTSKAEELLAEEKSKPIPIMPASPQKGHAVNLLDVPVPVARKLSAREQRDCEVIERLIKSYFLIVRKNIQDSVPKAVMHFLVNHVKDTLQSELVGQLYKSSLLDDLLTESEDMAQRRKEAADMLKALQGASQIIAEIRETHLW
Method: SH-SY5Y cells were treated with Drp1 peptides P110, P109, P112 or TAT47-57 only (1 μM). Because the interaction between Drp1 and Fis1 is transient and dynamic, cells were treated with the crosslinker, DSP, (0.75 mM for 30 min), as described in a previous study (Yoon et al., 2003, Mol Cell Biol 23:5409-5420). The cells were lysed in total cell lystes (50 mM Tris-HCl, pH 7.5, containing 150 mM NaCl, 1% Triton X-100, and protease inhibitor). Immunoprecipitates were analyzed by SDS-PAGE and immunoblotting with antibodies to Drp1, VDAC, and Fis1. VDAC was used as a loading control

SH-SY5Y cells [3] = experiment: Apoptosis of SH-SY5Y cells by annexin V staining; format: cell-based, human; conditions: 8 hours after MPP+ exposure, FIG. 9B
Method: Apoptosis was determined by annexin V staining 8 hours after MPP+ exposure. The number of apoptotic cells was expressed as mean±S.E. of percentage relative to total number of cells.

Drp1 = experiment: Confocal imaging of Drp1 localization on mitochondria in SH-SY5Y cells; format: cell-based, human; conditions: SH-SY5Y exposed to MPP+ or CCCP, FIG. 3G
Method: (§2) The effects of MPP+ or CCCP on translocation of Drp1 in the absence and presence of P110 was measured using confocal microscopy. Cultured SH-SY5Y cells in black 96-well plate were treated with Drp1 peptide inhibitor P110 (1 μM) 30 min prior to treatment of MPP+ (2 mM) or CCCP (5 uM). After 2 hrs of treatment, cells were stained with MITOSOX™ (red mitochondrial superoxide indicator) (5 uM, for 10 min, mitochondrial ROS) or TMRM (0.5 uM, for 20 min, MMP) at 37° C. For total ROS detection, cells were treated with MPP+ or CCCP for 24 hrs. ROS level was measured by CM-H2DCFDA (1 μM for 30 min, Invitrogen). Cells were washed with PBS for three times. The detection was performed in a fluorescence microplate reader (Tecan, Infinite M1000) according to manufacturer's instructions. Measurements were normalized to the cell number counted using Hoechst staining.
The data, quantitated by Image J software, is provided in a histogram FIG. 3G.

SH-SY5Y cells [4] = experiment: Mitochondrial superoxide production in SH-SY5Y cells (MITOSOX red); format: cell-based, human; conditions: peptide 1 μM, MPP+ 2 mM 2 hrs, FIG. 6A, FIG. 7
Method: as §2
SH-SY5Y cells were treated with P110 (1 μM) followed by incubation of MPP+ (2 mM) for 2 hrs. Mitochondrial superoxide production was determined using the mitochondrial superoxide indicator, MITOSOX™ red (red mitochondrial superoxide indicator). Nuclei were stained with Hoechst (blue). This experiment included the analysis of P110 alanine-scan analogs, further determine the contribution of each of the amino acids of the P110 fission inhibitor peptide sequence on the bioactivity of the peptide.

SH-SY5Y cells [5] = experiment: Apoptosis markers on mitochondria of SH-SY5Y cells (western blot: NT-Bax, cytochrome c, Bcl-2); format: cell-based, human; conditions: MPP+ 2 mM 1 hour, FIG. 9A
Method: SH-SY5Y neuronal cells were treated with P110 followed by the exposure to MPP+(2 mM for 1 hour). Active form of Bax (NT-Bax), cytochrome c and Bcl-2 on the mitochondria were determined by western blot analysis with the indicated antibodies. Shown are representative data of three independent experiments. Quantification of the data are provided as mean±SE of three independent experiments.

Sequence: RRRQRRKKRGYGGDLLPRGS (RRRQRRKKRGYGGDLLPRGS-NH2) [P110, TAT47-57 carrier, GG linker, Drp1 region 110 (GTPase domain) peptide DLLPRGS; C-terminus C(O)-NH2]
- mitochondrial ROS (superoxide) production [1]: reduced
- mitochondrial fragmentation [2]: reduced mitochondrial fragmentation
- effect on GTPase activity of OPA1 (OPA1): no effects
- Drp1-Fis1 interaction in cultured SH-SY5Y neuronal cells (Drp1/Fis1 interaction): inhibited interaction of Drp1 and Fis1; also recorded: Inhibition
- number of apoptotic cells (annexin V) (SH-SY5Y cells [3]): greatly reduced
- co-localization of Drp1 with mitochondria (Drp1): greatly reduced
- MPP+-induced production of mitochondrial superoxide (SH-SY5Y cells [4]): abolished
- Bcl-2 levels on the mitochondria (SH-SY5Y cells [5]): improved decreased Bcl-2 levels
- accumulation of active Bax on the mitochondria (SH-SY5Y cells [5]): greatly reduced accumulation of active Bax
- release of cytochrome c from the mitochondria (SH-SY5Y cells [5]): blocked the release of cytochrome c

— US10912815B2, “Inhibitors of mitochondrial fission and methods of use thereof” (The Board of Trustees of the Leland Stanford Junior …, priority 2011, dated 2021)
